Reference: patent US8952024B2, “Herbicidal pyrimidone derivatives” (E I du Pont de Nemours and Company, priority 2009, dated 2015)

Experiments:
Assay in all cases: Test B pre-/postemergence plant response
Assay type in all cases: in vivo
[1] = tested on: yellow nutsedge (Cyperus esculentus)
Summary of the method: (§1)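 Greenhouse herbicide screen. Pre- and postemergence (1- to 4-leaf) spray of compound in solvent/surfactant mixture; loam–sand soil for pre, peat/vermiculite medium for post. Visual control rating 0–100 at 13 to 15 days after treatment.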

[2] = tested on: blackgrass (Alopecurus myosuroides)
Summary of the method: as §1

kochia (Kochia scoparia) = tested on: kochia (Kochia scoparia)
Summary of the method: as §1

[3] = tested on: Surinam grass (Brachiaria decumbens)
Summary of the method: as §1

[4] = tested on: velvetleaf (Abutilon theophrasti)
Summary of the method: as §1

corn (Zea mays) = tested on: corn (Zea mays)
Summary of the method: as §1

[5] = tested on: large crabgrass (Digitaria sanguinalis)
Summary of the method: as §1

soybean (Glycine max) = tested on: soybean (Glycine max)
Summary of the method: as §1

[6] = tested on: woolly cupgrass (Eriochloa villosa)
Summary of the method: as §1

[7] = 62 g ai/ha, postemergence, 0 is no effect, 100 is complete control, 13 to 15 days

SMILES: O=C1CCCC(O)=C1C(=O)c1cnc(-c2ccccc2)n(C2CCCCC2)c1=O [Compound 128, 3-cyclohexyl-5-[(2-hydroxy-6-oxo-1-cyclohexen-1-yl)carbonyl]-2-phenyl-4(3H)-pyrimidinone]
- Nutsedge, Yellow plant response rating (0 to 100 scale) [1, 7]: 35
- pest or weed control at 31 g/ha ([1]; Cyperus, post-emergence, Postemergence, 31 g ai/ha, 0 to 100 scale (0 no effect, 100 complete control), read-out: Plant response rating, Nutsedge, Yellow): 20%
- pest or weed control at 125 g/ha ([1]; Cyperus, post-emergence, Postemergence, 125 g ai/ha, scale 0 to 100 (0 no effect, 100 complete control), read-out: Plant response rating, Nutsedge, Yellow): 60%
- pest or weed control at 250 g/ha ([1]; Cyperus, post-emergence, Postemergence, 250 g ai/ha, scale 0 to 100 (0 no effect, 100 complete control), 13 to 15 days, read-out: Plant response rating, Nutsedge, Yellow): 60%
- Blackgrass plant response rating (0 to 100 scale) [2, 7]: 5
- pest or weed control at 31 g/ha ([2]; Alopecurus myosuroides, post-emergence, 360 h, Postemergence, 31 g ai/ha, 0 to 100 scale (0 no effect, 100 complete control), read-out: Plant response rating, Blackgrass): 5%
- pest or weed control at 125 g/ha ([2]; Alopecurus myosuroides, post-emergence, 360 h, Postemergence, 125 g ai/ha, scale 0 to 100 (0 no effect, 100 complete control), read-out: Plant response rating, Blackgrass): 10%
- pest or weed control at 250 g/ha ([2]; Alopecurus myosuroides, post-emergence, 360 h, Postemergence, 250 g ai/ha, scale 0 to 100 (0 no effect, 100 complete control), 13 to 15 days, read-out: Plant response rating, Blackgrass): 15%
- Kochia plant response rating (0 to 100 scale) (kochia (Kochia scoparia); [7]): 85
- pest or weed control at 31 g/ha (kochia (Kochia scoparia); Bassia scoparia, post-emergence, Postemergence, 31 g ai/ha, 0 to 100 scale (0 no effect, 100 complete control), read-out: Plant response rating, Kochia): 60%
- pest or weed control at 125 g/ha (kochia (Kochia scoparia); Bassia scoparia, post-emergence, Postemergence, 125 g ai/ha, scale 0 to 100 (0 no effect, 100 complete control), read-out: Plant response rating, Kochia): 95%
- pest or weed control at 250 g/ha (kochia (Kochia scoparia); Bassia scoparia, post-emergence, Postemergence, 250 g ai/ha, scale 0 to 100 (0 no effect, 100 complete control), 13 to 15 days, read-out: Plant response rating, Kochia): 98%
- Surinam Grass plant response rating (0 to 100 scale) [3, 7]: 80
- pest or weed control at 31 g/ha ([3]; Urochloa decumbens, post-emergence, Postemergence, 31 g ai/ha, 0 to 100 scale (0 no effect, 100 complete control), read-out: Plant response rating, Surinam Grass): 50%
- pest or weed control at 125 g/ha ([3]; Urochloa decumbens, post-emergence, Postemergence, 125 g ai/ha, scale 0 to 100 (0 no effect, 100 complete control), read-out: Plant response rating, Surinam Grass): 85%
- pest or weed control at 250 g/ha ([3]; Urochloa decumbens, post-emergence, Postemergence, 250 g ai/ha, scale 0 to 100 (0 no effect, 100 complete control), 13 to 15 days, read-out: Plant response rating, Surinam Grass): 85%
- Velvetleaf plant response rating (0 to 100 scale) [4, 7]: 95
- pest or weed control at 31 g/ha ([4]; Abutilon theophrasti, post-emergence, 360 h, Postemergence, 31 g ai/ha, 0 to 100 scale (0 no effect, 100 complete control), read-out: Plant response rating, Velvetleaf): 90%
- pest or weed control at 125 g/ha ([4]; Abutilon theophrasti, post-emergence, 360 h, Postemergence, 125 g ai/ha, scale 0 to 100 (0 no effect, 100 complete control), read-out: Plant response rating, Velvetleaf): 95%
- pest or weed control at 250 g/ha ([4]; Abutilon theophrasti, post-emergence, 360 h, Postemergence, 250 g ai/ha, scale 0 to 100 (0 no effect, 100 complete control), 13 to 15 days, read-out: Plant response rating, Velvetleaf): 100%
- Corn plant response rating (0 to 100 scale) (corn (Zea mays); [7]): 50
- Corn plant response rating (crop injury, 0 = no effect, 100 = complete kill) at 31 g/ha (corn (Zea mays); Zea mays, post-emergence, Postemergence, 31 g ai/ha, 0 to 100 scale (0 no effect, 100 complete control)): 40%
- Corn plant response rating (crop injury, 0 = no effect, 100 = complete kill) at 125 g/ha (corn (Zea mays); Zea mays, post-emergence, Postemergence, 125 g ai/ha, scale 0 to 100 (0 no effect, 100 complete control)): 60%
- Corn plant response rating (crop injury, 0 = no effect, 100 = complete kill) at 250 g/ha (corn (Zea mays); Zea mays, post-emergence, Postemergence, 250 g ai/ha, scale 0 to 100 (0 no effect, 100 complete control), 13 to 15 days): 60%
- Crabgrass, Large plant response rating (0 to 100 scale) [5, 7]: 85
- pest or weed control at 31 g/ha ([5]; Digitaria sanguinalis, post-emergence, Postemergence, 31 g ai/ha, 0 to 100 scale (0 no effect, 100 complete control), read-out: Plant response rating, Crabgrass, Large): 85%
- pest or weed control at 125 g/ha ([5]; Digitaria sanguinalis, post-emergence, Postemergence, 125 g ai/ha, scale 0 to 100 (0 no effect, 100 complete control), read-out: Plant response rating, Crabgrass, Large): 95%
- pest or weed control at 250 g/ha ([5]; Digitaria sanguinalis, post-emergence, Postemergence, 250 g ai/ha, scale 0 to 100 (0 no effect, 100 complete control), 13 to 15 days, read-out: Plant response rating, Crabgrass, Large): 100%
- Soybean plant response rating (0 to 100 scale) (soybean (Glycine max); [7]): 98
- plant injury at 31 g/ha (soybean (Glycine max); Glycine max, post-emergence, Postemergence, 31 g ai/ha, 0 to 100 scale (0 no effect, 100 complete control), read-out: Plant response rating, Soybean): 98%
- plant injury at 125 g/ha (soybean (Glycine max); Glycine max, post-emergence, Postemergence, 125 g ai/ha, scale 0 to 100 (0 no effect, 100 complete control), read-out: Plant response rating, Soybean): 98%
- plant injury at 250 g/ha (soybean (Glycine max); Glycine max, post-emergence, Postemergence, 250 g ai/ha, scale 0 to 100 (0 no effect, 100 complete control), 13 to 15 days, read-out: Plant response rating, Soybean): 98%
- Cupgrass, Woolly plant response rating (0 to 100 scale) [6, 7]: 90
- pest or weed control at 31 g/ha ([6]; Eriochloa villosa, post-emergence, Postemergence, 31 g ai/ha, 0 to 100 scale (0 no effect, 100 complete control), read-out: Plant response rating, Cupgrass, Woolly): 85%
